This assay addresses T1, human PTH1 receptor (Homo sapiens, UniProt Q03431).
T1 sequence (Q03431 27-593): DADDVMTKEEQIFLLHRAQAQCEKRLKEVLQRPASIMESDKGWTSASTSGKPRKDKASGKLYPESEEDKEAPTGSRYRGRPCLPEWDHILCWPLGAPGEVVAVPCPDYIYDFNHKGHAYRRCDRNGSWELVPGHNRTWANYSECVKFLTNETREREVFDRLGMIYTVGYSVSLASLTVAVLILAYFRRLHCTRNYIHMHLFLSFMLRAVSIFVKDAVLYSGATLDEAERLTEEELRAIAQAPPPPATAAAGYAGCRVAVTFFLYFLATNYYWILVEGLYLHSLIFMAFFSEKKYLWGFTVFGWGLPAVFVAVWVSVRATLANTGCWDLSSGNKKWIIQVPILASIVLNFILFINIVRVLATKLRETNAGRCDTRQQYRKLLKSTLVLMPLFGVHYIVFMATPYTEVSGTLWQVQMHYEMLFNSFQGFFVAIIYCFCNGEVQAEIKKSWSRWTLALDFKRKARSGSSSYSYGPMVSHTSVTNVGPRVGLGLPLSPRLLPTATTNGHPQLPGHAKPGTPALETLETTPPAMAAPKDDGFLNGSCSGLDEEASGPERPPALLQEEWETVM
Nature of the assay: In vitro cAMP signal activity in HKRK-B7 cells (LLC-PK1 cells overexpressing the human PTH1 receptor). Format: cell-based. The note with it: HKRK-B7 cells; compound at 1×10^−3 M; cAMP produced as percentage of that produced by hPTH(1-34) at 100 nM.
As for `Cc1cc(C(=O)N2CC[C@H](O)C2)ccc1CCS(=O)(=O)N1CCC2(CC1)N=C(c1cccc(C(F)(F)F)c1)NC2=O` [Compound 370, 8-{2-[4-((S)-3-hydroxy-pyrrolidine-1-carbonyl)-2-methyl-phenyl]-ethanesulfonyl}-2-(3-trifluoromethyl-phenyl)-1,3,8-triaza-spiro[4.5]dec-1-en-4-one], the “cAMP production activity (%)” value is 66%.
The figure for `Cc1cc(C(=O)N2CCC[C@@H]2CO)ccc1CCS(=O)(=O)N1CCC2(CC1)N=C(c1cccc(C(F)(F)F)c1)NC2=O` [Compound 371, 8-{2-[4-((R)-2-hydroxymethyl-pyrrolidine-1-carbonyl)-2-methyl-phenyl]-ethanesulfonyl}-2-(3-trifluoromethyl-phenyl)-1,3,8-triaza-spiro[4.5]dec-1-en-4-one] is 72%; for `Cc1cc(C(=O)N2CC[C@H](N(C)C)C2)ccc1CCS(=O)(=O)N1CCC2(CC1)N=C(c1cccc(C(F)(F)F)c1)NC2=O` [Compound 372, 8-{2-[4-((S)-3-dimethylamino-pyrrolidine-1-carbonyl)-2-methyl-phenyl]-ethanesulfonyl}-2-(3-trifluoromethyl-phenyl)-1,3,8-triaza-spiro[4.5]dec-1-en-4-one] it is 51%.
In the case of `Cc1cc(C(=O)N2CCN(C(C)(C)C)CC2)ccc1CCS(=O)(=O)N1CCC2(CC1)N=C(c1cccc(C(F)(F)F)c1)NC2=O` [Compound 373, 8-{2-[4-(4-tert-butyl-piperazine-1-carbonyl)-2-methyl-phenyl]-ethanesulfonyl}-2-(3-trifluoromethyl-phenyl)-1,3,8-triaza-spiro[4.5]dec-1-en-4-one], the “cAMP production activity (%)” value amounted to 70%.
The figure for `Cc1cc(C(=O)N2CCN(CCCN(C)C)CC2)ccc1CCS(=O)(=O)N1CCC2(CC1)N=C(c1cccc(C(F)(F)F)c1)NC2=O` [Compound 374, 8-(2-{4-[4-(3-dimethylamino-propyl)-piperazine-1-carbonyl]-2-methyl-phenyl}-ethanesulfonyl)-2-(3-trifluoromethyl-phenyl)-1,3,8-triaza-spiro[4.5]dec-1-en-4-one] is 79%; for `Cc1cc(C(=O)N2CCN(c3ccc(F)cc3)CC2)ccc1CCS(=O)(=O)N1CCC2(CC1)N=C(c1cccc(C(F)(F)F)c1)NC2=O` [Compound 375, 8-(2-{4-[4-(4-fluoro-phenyl)-piperazine-1-carbonyl]-2-methyl-phenyl}-ethanesulfonyl)-2-(3-trifluoromethyl-phenyl)-1,3,8-triaza-spiro[4.5]dec-1-en-4-one] it is 57%; for `Cc1cc(C(=O)N2CCN(C(C)C)CC2)ccc1CCS(=O)(=O)N1CCC2(CC1)N=C(c1cccc(C(F)(F)F)c1)NC2=O` [Compound 376, 8-{2-[4-(4-isopropyl-piperazine-1-carbonyl)-2-methyl-phenyl]-ethanesulfonyl}-2-(3-trifluoromethyl-phenyl)-1,3,8-triaza-spiro[4.5]dec-1-en-4-one] it is 74%.
On to `Cc1cc(C(=O)N2CC(O)C2)ccc1CCS(=O)(=O)N1CCC2(CC1)N=C(c1cccc(C(F)(F)F)c1)NC2=O` [Compound 377, 8-{2-[4-(3-hydroxy-azetidine-1-carbonyl)-2-methyl-phenyl]-ethanesulfonyl}-2-(3-trifluoromethyl-phenyl)-1,3,8-triaza-spiro[4.5]dec-1-en-4-one], for which the “cAMP production activity (%)” value turned out to be 64%.
Regarding `Cc1cc(C(=O)N2CCC(F)C2)ccc1CCS(=O)(=O)N1CCC2(CC1)N=C(c1cccc(C(F)(F)F)c1)NC2=O` (stereo not shown) [Compound 378, 8-{2-[4-(3-fluoro-pyrrolidine-1-carbonyl)-2-methyl-phenyl]-ethanesulfonyl}-2-(3-trifluoromethyl-phenyl)-1,3,8-triaza-spiro[4.5]dec-1-en-4-one], the “cAMP production activity (%)” value is 60%.
Next, `Cc1cc(C(=O)N2CC(F)C2)ccc1CCS(=O)(=O)N1CCC2(CC1)N=C(c1cccc(C(F)(F)F)c1)NC2=O` [Compound 379, 8-{2-[4-(3-fluoro-azetidine-1-carbonyl)-2-methyl-phenyl]-ethanesulfonyl}-2-(3-trifluoromethyl-phenyl)-1,3,8-triaza-spiro[4.5]dec-1-en-4-one]: 59%; `Cc1cc(C(=O)N2CCCCC2)ccc1CCS(=O)(=O)N1CCC2(CC1)N=C(c1cccc(C(F)(F)F)c1)NC2=O` [Compound 380, 8-{2-[2-methyl-4-(piperidine-1-carbonyl)-phenyl]-ethanesulfonyl}-2-(3-trifluoromethyl-phenyl)-1,3,8-triaza-spiro[4.5]dec-1-en-4-one]: 75%.
Next, `Cc1cc(C(=O)N2CCC2)ccc1CCS(=O)(=O)N1CCC2(CC1)N=C(c1cccc(C(F)(F)F)c1)NC2=O` [Compound 381, 8-{2-[4-(azetidine-1-carbonyl)-2-methyl-phenyl]-ethanesulfonyl}-2-(3-trifluoromethyl-phenyl)-1,3,8-triaza-spiro[4.5]dec-1-en-4-one]: 72%; `Cc1cc(C(=O)N2CCN(C(=O)N(C)C)CC2)ccc1CCS(=O)(=O)N1CCC2(CC1)N=C(c1cccc(C(F)(F)F)c1)NC2=O` [Compound 382, 4-(3-methyl-4-{2-[4-oxo-2-(3-trifluoromethyl-phenyl)-1,3,8-triaza-spiro[4.5]dec-1-ene-8-sulfonyl]-ethyl}-benzoyl)-piperazine-1-carboxylic acid dimethylamide]: 36%; `Cc1cc(C(=O)N(C)C)cc(C)c1/C=C/S(=O)(=O)N1CCC2(CC1)N=C(c1cccc(C(F)(F)F)c1)NC2=O` [Compound 383, 3,5,N,N-Tetramethyl-4-{(E)-2-[4-oxo-2-(3-trifluoromethyl-phenyl)-1,3,8-triaza-spiro[4.5]dec-1-ene-8-sulfonyl]-vinyl}-benzamide]: 72%.
The figure for `Cc1cc(C(=O)N2CCC(O)CC2)cc(C)c1/C=C/S(=O)(=O)N1CCC2(CC1)N=C(c1cccc(C(F)(F)F)c1)NC2=O` [Compound 384, 8-{(E)-2-[4-(4-hydroxy-piperidine-1-carbonyl)-2,6-dimethyl-phenyl]-ethenesulfonyl}-2-(3-trifluoromethyl-phenyl)-1,3,8-triaza-spiro[4.5]dec-1-en-4-one] is 61%; for `Cc1cc(C(=O)N2CC(O)C2)cc(C)c1/C=C/S(=O)(=O)N1CCC2(CC1)N=C(c1cccc(C(F)(F)F)c1)NC2=O` [Compound 385, 8-{(E)-2-[4-(3-hydroxy-azetidine-1-carbonyl)-2,6-dimethyl-phenyl]-ethenesulfonyl}-2-(3-trifluoromethyl-phenyl)-1,3,8-triaza-spiro[4.5]dec-1-en-4-one] it is 94%.
As for `Cc1cc(C(=O)N2CCC(O)(CO)CC2)cc(C)c1/C=C/S(=O)(=O)N1CCC2(CC1)N=C(c1cccc(C(F)(F)F)c1)NC2=O` [Compound 386, 8-{(E)-2-[4-(4-hydroxy-4-hydroxymethyl-piperidine-1-carbonyl)-2,6-dimethyl-phenyl]-ethenesulfonyl}-2-(3-trifluoromethyl-phenyl)-1,3,8-triaza-spiro[4.5]dec-1-en-4-one], the “cAMP production activity (%)” value is 86%.
The figure for `Cc1cc(C(=O)N2C[C@@H](O)[C@H](N(C)C)C2)cc(C)c1/C=C/S(=O)(=O)N1CCC2(CC1)N=C(c1cccc(C(F)(F)F)c1)NC2=O` [Compound 387, 8-{(E)-2-[4-((3R,4R)-3-dimethylamino-4-hydroxy-pyrrolidine-1-carbonyl)-2,6-dimethyl-phenyl]-ethenesulfonyl}-2-(3-trifluoromethyl-phenyl)-1,3,8-triaza-spiro[4.5]dec-1-en-4-one] is 97%; for `Cc1cc(C(=O)N2CCCC2)cc(C)c1/C=C/S(=O)(=O)N1CCC2(CC1)N=C(c1cccc(C(F)(F)F)c1)NC2=O` [Compound 388, 8-{(E)-2-[2,6-dimethyl-4-(pyrrolidine-1-carbonyl)-phenyl]-ethenesulfonyl}-2-(3-trifluoromethyl-phenyl)-1,3,8-triaza-spiro[4.5]dec-1-en-4-one] it is 84%; for `Cc1cc(C(=O)N(C)CCCO)cc(C)c1/C=C/S(=O)(=O)N1CCC2(CC1)N=C(c1cccc(C(F)(F)F)c1)NC2=O` [Compound 389, N-(3-hydroxy-propyl)-3,5,N-trimethyl-4-{(E)-2-[4-oxo-2-(3-trifluoromethyl-phenyl)-1,3,8-triaza-spiro[4.5]dec-1-ene-8-sulfonyl]-vinyl}-benzamide] it is 75%.
Turning to `Cc1cc(C(=O)N(C)CCN(C)C)cc(C)c1/C=C/S(=O)(=O)N1CCC2(CC1)N=C(c1cccc(C(F)(F)F)c1)NC2=O` [Compound 390, N-(2-dimethylamino-ethyl)-3,5,N-trimethyl-4-{(E)-2-[4-oxo-2-(3-trifluoromethyl-phenyl)-1,3,8-triaza-spiro[4.5]dec-1-ene-8-sulfonyl]-vinyl}-benzamide], the “cAMP production activity (%)” value came to 22%.
Next, `Cc1cc(C(=O)N(C)CCCN(C)C)cc(C)c1/C=C/S(=O)(=O)N1CCC2(CC1)N=C(c1cccc(C(F)(F)F)c1)NC2=O` [Compound 391, N-(3-dimethylamino-propyl)-3,5,N-trimethyl-4-{(E)-2-[4-oxo-2-(3-trifluoromethyl-phenyl)-1,3,8-triaza-spiro[4.5]dec-1-ene-8-sulfonyl]-vinyl}-benzamide]: 26%.

The record behind these values is patent publication US9169254B2, “Spiroimidazolone derivative” (Chugai Seiyaku Kabushiki Kaisha, priority 2009, dated 2015).
